Values of other authors in EP0388817A2, “Use of mixed micelles and mixed micelle solutions of immunomodulators” (F. Hoffmann-La Roche AG, priority 1989, dated 1990).

Details: octanol/water

Row | Verteilungskoeffizient in Octanol/Wasser | Substance
1 | > 10^6 | Vitamin E
2 | > 10^6 | Vitamin A
3 | > 10^6 | Vitamin K
